Read-outs that look alike come from different tables or passages of the source.
What was measured:
[1] = test system: patient in need of treatment for long COVID; assay: Treating long COVID (Example 1), clinical screening assessments; type: in vivo, human; conditions: patients with long COVID
Method: A Compound of Formula (I), such as Compound 2a or Compound 1a, or a pharmaceutically acceptable salt thereof, is administered orally to a patient in need of treatment for long COVID.
In some embodiments, a patient in need of treatment for long COVID is assessed with ADCS-ADL23. The ADCS-ADL23 (Galasko, 1997) is a 23-item assessment of functional impairment in terms of activities of daily living administered to the support person/caregiver. It comprises 23 questions about the subject's involvement and level of performance across items representing daily living. The questions range from basic to instrumental activities of daily living. Each item is rated from the highest level of independent performance to complete loss. The total score range is from 0 to 78, with lower scores indicating greater functional impairment.
A patient in need of treatment for long COVID is assessed with ERP P300. ERP P300 is a quantitative, unbiased, non-invasive method of recording task-related brain processing speed, elicited by external stimuli, e.g., an oddball auditory stimulus, and is a well-established functional biomarker, particularly of working memory access (Ally, 2006). ERP P300 is characterized by a stereotyped series of voltage deflections occurring after the respective odd tone to be counted, with early features (<100 msec) corresponding to unconscious sensory transmission (auditory cortex, N100), and later features produced by cognitive processing in the ventral attentional network, i.e., P300, referring to the large positive deflection at roughly 300 msec in healthy adults (young or elderly). The P300 latency is sensitive to detecting reduced synaptic transmission related to cognitive decline in AD patients and other dementias (Olichney, 2011).

[2] = test system: Rat primary cortical neuron cultures; type: cell-based; conditions: for Significance of neuroprotection vs 1 uM LPS: 24 h LPS
Rat hippocampal neurons [3] = assay: Neurite outgrowth assay; type: cell-based; conditions: for Significant increase in: Neurite length: Table 4 study
Rat hippocampal neurons [4] = assay: Synaptogenesis assay; type: cell-based; conditions: for Significant increase in: Synapses: Table 4 study
[5] = test system: LPS-induced cognitive deficit in CD-1 mice; assay: Rodent LPS model of brain inflammation, T-maze spontaneous alternation; type: in vivo, mouse; conditions: for Recovery (%) / Spontaneous alternation (%) Mean: LPS 250 μg/kg
[6] = test system: THP1-differentiated macrophages; type: cell-based, human; design: key to Significant reduction in IL-6 / Significant reduction in TNF-α / Significant reduction in IL-1β: NS: indicates a non-significant reduction in the indicated cytokine; +: indicates a p value<0.05 in Tukey post test; ++: indicates a p value<0.01 in Tukey post test; conditions: for Significant reduction in IL-1β / Significant reduction in IL-6 / Significant reduction in TNF-α: 24 hrs LPS
[7] = test system: bleomycin-induced pulmonary fibrosis in C57BL/6 mice; assay: Bleomycin-induced pulmonary fibrosis; type: in vivo, mouse; conditions: for TGF-Beta, improvement versus disease control / Collagen, improvement versus disease control / Hydroxyproline, improvement versus disease control: right lung homogenate
[8] = test system: pulmonary LPS-stimulated rats; assay: Immune cell infiltration in BALF, LPS acute pulmonary inflammation; type: in vivo, rat
[9] = test system: pulmonary LPS-stimulated rats; assay: Cytokine expression in BALF supernatant (multiplex immunoassay), LPS acute pulmonary inflammation; type: in vivo, rat; conditions: any dose, p<0.05 vs LPS-only animals
[10] = test system: chemically-induced spatial memory deficits in rats; assay: Scopolamine-induced spatial memory deficit, Morris water maze (2 mg/kg scopolamine, 5 days); type: in vivo, rat
Method: Exemplary compound 1a was evaluated for its ability to reverse chemically-induced spatial memory deficits in rats in the Morris water maze. The water maze consists of a large round tank (diameter 1.5 m) filled with 23-26° C. water to a depth of ˜30 cm and the water was clouded with white paint. A round platform was fixed such that it rested 2-3 cm below the surface of the water. High-contrast visual cues were placed around the tank to aid spatial orientation of test animals. Testing consisted of placing an animal into the water facing the tank wall at one of three randomly assigned starting locations and allowing the animal to swim and search for the hidden platform for up to 90 seconds. The time taken for the animal to locate the platform was recorded as the escape latency. Animals were tested 5 times per day with a 30 second rest period between trials. Testing was completed for a total of 5 consecutive days.
Animals were divided into groups (N=12 per group) depending on treatment. Control animals received only empty vehicle. Scopolamine groups received 2 mg/kg scopolamine dissolved in sterile saline by intraperitoneal (IP) injection 30 minutes prior to testing. Test compound groups received test compound at various concentrations by oral gavage (PO) dissolved in 78% sterile saline, 20% polyethylene glycol (PEG-400), and 2% DMSO 40 minutes prior to testing. Escape latencies were recorded for each animal for 5 trials each day for 5 consecutive days. Changes in escape latency curves were statistically analyzed by 2-way ANOVA with Bonferoni post-test.

Compound: CCC(C)CN1CC2N(C(=O)c3ccc(C(F)(F)F)cc3)CCC(=O)N2[C@@H](C)C1=O (stereo partly drawn) [Compound 1a]
- patient outcome as measured by one or more of the screening assessments [1]: reduces the rate of decline, stabilizes, or improves patient outcome
- safety and tolerability [1]: acceptable safety and tolerability
- Significance of neuroprotection vs 1 uM LPS ([2]; 0.1 nM): +++ (+++ indicates p<0.001)
- Significance of neuroprotection vs 1 uM LPS ([2]; 1 nM): +++ (+++ indicates p<0.001)
- Significance of neuroprotection vs 1 uM LPS ([2]; 10 nM): +++ (+++ indicates p<0.001)
- Significance of neuroprotection vs 1 uM LPS ([2]; 100 nM): +++ (+++ indicates p<0.001)
- Significance of neuroprotection vs 1 uM LPS ([2]; 1 μM): +++ (+++ indicates p<0.001)
- protection of primary neurons from LPS-stimulated inflammatory toxicity ([2]; at at least one dose tested): protected primary neurons from LPS-stimulated inflammatory toxicity
- neurite length / extension of neurites (in words) (Rat hippocampal neurons [3]): increase both measures at all doses tested
- Significant increase in: Neurite length (Rat hippocampal neurons [3]; 1 nM): ++++ (++++ = p < 0.0001)
- Significant increase in: Neurite length (Rat hippocampal neurons [3]; 10 nM): ++++ (++++ = p < 0.0001)
- Significant increase in: Neurite length (Rat hippocampal neurons [3]; 100 nM): + (+ = p < 0.05)
- synapse counts (in words) (Rat hippocampal neurons [4]): increase both measures at all doses tested
- Significant increase in: Synapses (Rat hippocampal neurons [4]; 1 nM): ++++ (++++ = p < 0.0001)
- Significant increase in: Synapses (Rat hippocampal neurons [4]; 10 nM): ++++ (++++ = p < 0.0001)
- Significant increase in: Synapses (Rat hippocampal neurons [4]; 100 nM): ++++ (++++ = p < 0.0001)
- Recovery (%) ([5]; 0.5 mg/kg p.o. 14 days): 17%
- Spontaneous alternation (%) Mean ([5]; 0.5 mg/kg p.o. 14 days): 49%
- Spontaneous alternation (%) Mean ([5]; 0.5 mg/kg p.o. 14 days, listed as Cmpd la): 48.6%
- Recovery (%) ([5]; 2 mg/kg p.o. 14 days): 56%
- Spontaneous alternation (%) Mean ([5]; 2 mg/kg p.o. 14 days): 59%
- Spontaneous alternation (%) Mean ([5]; 2 mg/kg p.o. 14 days, listed as Cmpd la): 58.6%
- Recovery (%) ([5]; 8 mg/kg p.o. 14 days): 47%
- Spontaneous alternation (%) Mean ([5]; 8 mg/kg p.o. 14 days): 56%
- Spontaneous alternation (%) Mean ([5]; 8 mg/kg p.o. 14 days, listed as Cmpd la): 56.4%
- Recovery (%) ([5]; 16 mg/kg p.o. 14 days): 28%
- Spontaneous alternation (%) Mean ([5]; 16 mg/kg p.o. 14 days): 51%
- Spontaneous alternation (%) Mean ([5]; 16 mg/kg p.o. 14 days, listed as Cmpd la): 51.4%
- Recovery (%) ([5]; 32 mg/kg p.o. 14 days): 44%
- Spontaneous alternation (%) Mean ([5]; 32 mg/kg p.o. 14 days): 56%
- Spontaneous alternation (%) Mean ([5]; 32 mg/kg p.o. 14 days, listed as Cmpd la): 55.7%
- significance of reversal of LPS-induced cognitive deficit (in words) ([5]; T-maze): significant reversal of LPS-induced cognitive deficits at 2 mg/kg
- Significant reduction in IL-1β ([6]; 0.1 nM): ++ (indicates a p value<0.01 in Tukey post test)
- Significant reduction in IL-6 ([6]; 0.1 nM): NS
- Significant reduction in TNF-α ([6]; 0.1 nM): ++ (indicates a p value<0.01 in Tukey post test)
- Significant reduction in IL-1β ([6]; 10 nM): ++ (indicates a p value<0.01 in Tukey post test)
- Significant reduction in IL-6 ([6]; 10 nM): ++ (indicates a p value<0.01 in Tukey post test)
- Significant reduction in TNF-α ([6]; 10 nM): ++ (indicates a p value<0.01 in Tukey post test)
- Significant reduction in IL-1β ([6]; 1000 nM): ++ (indicates a p value<0.01 in Tukey post test)
- Significant reduction in IL-6 ([6]; 1000 nM): + (indicates a p value<0.05 in Tukey post test)
- Significant reduction in TNF-α ([6]; 1000 nM): ++ (indicates a p value<0.01 in Tukey post test)
- expression of IL-1β (in words) ([6]; at at least one tested dose): significantly reduced the expression of IL-1β and TNF-α
- expression of IL-6 (in words) ([6]; at at least one tested dose): significantly reduced the expression of IL-6
- expression of TNF-α (in words) ([6]; at at least one tested dose): significantly reduced the expression of IL-1β and TNF-α
- TGF-Beta, improvement versus disease control ([7]; 0.2 mg/kg po QD): +++ (+++ => 51-100% improvement v disease control)
- weight loss compared to the other treatment groups ([7]; 0.8 mg/kg): slightly greater weight loss
- Right Lung Weight, improvement versus disease control ([7]; 0.8 mg/kg po QD, day 21): + (+ => 5-25% improvement v disease control)
- Collagen, improvement versus disease control ([7]; 0.8 mg/kg po QD): + (+ => 5-25% improvement v disease control)
- TGF-Beta, improvement versus disease control ([7]; 0.8 mg/kg po QD): +++ (+++ => 51-100% improvement v disease control)
- collagen in right lung homogenate versus pirfenidone (in words) ([7]; 2 mg/kg): about the same levels of collagen
- Right Lung Weight, improvement versus disease control ([7]; 2 mg/kg po QD, day 21): + (+ => 5-25% improvement v disease control)
- Collagen, improvement versus disease control ([7]; 2 mg/kg po QD): ++ (++ => 26-50% improvement v disease control)
- Hydroxyproline, improvement versus disease control ([7]; 2 mg/kg po QD): ++ (++ => 26-50% improvement v disease control)
- TGF-Beta, improvement versus disease control ([7]; 2 mg/kg po QD): +++ (+++ => 51-100% improvement v disease control)
- collagen concentration in right lung homogenates (in words) ([7]; 8 mg/kg): reduced compared to the pirfenidone positive control
- hydroxyproline concentration in right lung homogenates (in words) ([7]; 8 mg/kg and 2 mg/kg): lower concentrations of hydroxyproline
- Right Lung Weight, improvement versus disease control ([7]; 8 mg/kg po QD, day 21): ++ (++ => 26-50% improvement v disease control)
- Hydroxyproline, improvement versus disease control ([7]; 8 mg/kg po QD): + (+ => 5-25% improvement v disease control)
- TGF-Beta, improvement versus disease control ([7]; 8 mg/kg po QD): + (+ => 5-25% improvement v disease control)
- protection against bleomycin-induced increases in TGF-β (in words) ([7]; all doses, day 21): significantly protected against bleomycin-induced increases in TGF-β
- protection against body weight loss (in words) ([7]; all treatment groups): did not protect against body weight loss
- activity in treating pulmonary fibrosis in the model ([7]; mouse, in vivo): active in treating pulmonary fibrosis
- Neutrophils in BALF, reduction vs disease control ([8]; 0.0075 mg/kg IV): ++ (++ = >25% reduction in cell count vs disease control)
- Total Leukocytes in BALF, reduction vs disease control ([8]; 0.0075 mg/kg IV): ++ (++ = >25% reduction in cell count vs disease control)
- Neutrophils in BALF, reduction vs disease control ([8]; 0.075 mg/kg IV): + (+ = >5% reduction in cell count vs disease control)
- Total Leukocytes in BALF, reduction vs disease control ([8]; 0.075 mg/kg IV): + (+ = >5% reduction in cell count vs disease control)
- neutrophil counts compared to LPS-only controls (in words) ([8]; rat, in vivo): reduced both total leukocyte counts and neutrophil counts
- total leukocyte counts compared to LPS-only controls (in words) ([8]; rat, in vivo): reduced both total leukocyte counts and neutrophil counts
- cytokines with significant changes in expression in BALF supernatant (list) [9]: G-CSF, CXCL2, CXCL10, IFN-γ, and IL-1β
- Cognitive Improvement ([10]; 0.5 mg/kg PO): + (+ indicates post-test p-value between 0.06 and 0.05)
- Cognitive Improvement ([10]; 2 mg/kg PO): − (− indicates post-test p-value above 0.06)
- Cognitive Improvement ([10]; 8 mg/kg PO): − (− indicates post-test p-value above 0.06)
